Measured values published in ChEMBL document CHEMBL3988442, “University of Dundee, Small-Polar-MMV Screening Library” (2021).
“And” between values parts separate entries of the source, which are not always exact repeats. Equal values may be shown once.

Tests used:
[1] = target: AMP-activated protein kinase, AMPK; assay: AMP-dependent Kinase enzyme assay. An in vitro enzyme assay that detects ADP turnover that is directly proportional to AMPK activity. This uses naive AMPK that is activated during the assay with MK-8722; format: functional, Homo sapiens
[2] = target: T1, Coenzyme A biosynthesis bifunctional protein CoaBC (Mycobacterium tuberculosis (strain ATCC 25618 / H37Rv), UniProt P9WNZ1); assay: Biomol Green assay for MtCoaBC inhibitor, OD650 read; format: functional
T1 sequence (P9WNZ1 whole entry): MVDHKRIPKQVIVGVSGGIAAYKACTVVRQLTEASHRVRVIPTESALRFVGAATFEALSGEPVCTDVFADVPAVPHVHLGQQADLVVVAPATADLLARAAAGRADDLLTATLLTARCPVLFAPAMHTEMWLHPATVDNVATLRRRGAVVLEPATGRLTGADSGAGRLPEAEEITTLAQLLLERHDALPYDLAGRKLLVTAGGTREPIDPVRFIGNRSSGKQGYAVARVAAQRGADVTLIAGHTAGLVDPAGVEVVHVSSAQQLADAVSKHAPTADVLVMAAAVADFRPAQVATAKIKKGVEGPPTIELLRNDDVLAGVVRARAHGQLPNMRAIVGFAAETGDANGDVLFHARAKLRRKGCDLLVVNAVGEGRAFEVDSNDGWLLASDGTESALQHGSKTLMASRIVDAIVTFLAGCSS

[3] = target: Polyketide synthase Pks13 (Mycobacterium tuberculosis (strain ATCC 25618 / H37Rv), UniProt I6X8D2); assay: Mycobacterium tuberculosis Polyketide synthase 13 Thioesterase (PKS13); format: functional
[4] = To identify inhibition of the IFN signalling (Jak-Stat) pathway via expression of an eGFP reporter gene under the control of an IFN-stimulated response element (ISRE) containing MxA promoter.; format: functional, Homo sapiens
[5] = system: Trypanosoma brucei; assay: Trypanosoma brucei 72 hour study; format: functional, organism-based
[6] = system: Leishmania donovani; assay: Leishmania intramacrophage assay; format: functional, organism-based
[7] = target: T2, Histidine--tRNA ligase (Leishmania infantum, UniProt A4I591); assay: Leishmania infantum Histidine tRNA synthetase (LdHisRS); format: functional
T2 sequence (A4I591 whole entry): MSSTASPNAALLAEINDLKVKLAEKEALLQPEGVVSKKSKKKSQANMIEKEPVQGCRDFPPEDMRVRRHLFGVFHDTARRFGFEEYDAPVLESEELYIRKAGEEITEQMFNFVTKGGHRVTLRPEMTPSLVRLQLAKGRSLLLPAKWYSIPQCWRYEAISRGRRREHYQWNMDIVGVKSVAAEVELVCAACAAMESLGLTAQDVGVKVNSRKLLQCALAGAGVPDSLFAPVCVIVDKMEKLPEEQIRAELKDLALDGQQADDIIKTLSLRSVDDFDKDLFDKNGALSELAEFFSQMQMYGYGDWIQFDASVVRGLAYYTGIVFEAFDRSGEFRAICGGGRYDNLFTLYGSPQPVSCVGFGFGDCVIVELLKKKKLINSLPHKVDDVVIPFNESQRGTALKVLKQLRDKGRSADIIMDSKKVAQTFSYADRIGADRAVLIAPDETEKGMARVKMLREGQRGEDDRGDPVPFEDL

[8] = target: T3, Histidine--tRNA ligase (Trypanosoma cruzi (strain CL Brener), UniProt Q4DA54); assay: Trypanosoma cruzi histidyl tRNA synthetase (Tc-HisRS); format: functional
T3 sequence (Q4DA54 whole entry): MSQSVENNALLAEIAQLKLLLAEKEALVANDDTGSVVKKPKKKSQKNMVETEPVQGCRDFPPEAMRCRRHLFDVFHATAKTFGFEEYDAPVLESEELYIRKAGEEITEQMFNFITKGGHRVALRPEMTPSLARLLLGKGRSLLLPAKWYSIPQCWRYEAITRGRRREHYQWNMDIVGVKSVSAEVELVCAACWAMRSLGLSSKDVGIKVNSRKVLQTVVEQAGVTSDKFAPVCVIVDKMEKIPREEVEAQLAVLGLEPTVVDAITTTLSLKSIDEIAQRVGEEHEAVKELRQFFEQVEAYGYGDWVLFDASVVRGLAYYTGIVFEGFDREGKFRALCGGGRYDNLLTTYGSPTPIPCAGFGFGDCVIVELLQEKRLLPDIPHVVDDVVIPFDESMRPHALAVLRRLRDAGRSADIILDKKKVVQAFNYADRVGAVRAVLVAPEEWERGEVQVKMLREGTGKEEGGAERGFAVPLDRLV

[9] = target: Lysine--tRNA ligase (Plasmodium falciparum (isolate 3D7), UniProt Q8IDJ8); assay: Pf-KRS-1 (Lysyl-RNA Synthetase-1, KRS-1, cytosolic KRS) from Plasmodium falciparum. Inhibitor assay, 384 well plate, luminescence read.; format: functional
[10] = target: T4, Ubiquitin-activating enzyme e1, putative (Leishmania donovani (strain BPK282A1), UniProt E9BSI1); assay: Leishmania donovani Ubiquitin Activating Enzyme (LdE1); format: functional
T4 sequence (E9BSI1 whole entry): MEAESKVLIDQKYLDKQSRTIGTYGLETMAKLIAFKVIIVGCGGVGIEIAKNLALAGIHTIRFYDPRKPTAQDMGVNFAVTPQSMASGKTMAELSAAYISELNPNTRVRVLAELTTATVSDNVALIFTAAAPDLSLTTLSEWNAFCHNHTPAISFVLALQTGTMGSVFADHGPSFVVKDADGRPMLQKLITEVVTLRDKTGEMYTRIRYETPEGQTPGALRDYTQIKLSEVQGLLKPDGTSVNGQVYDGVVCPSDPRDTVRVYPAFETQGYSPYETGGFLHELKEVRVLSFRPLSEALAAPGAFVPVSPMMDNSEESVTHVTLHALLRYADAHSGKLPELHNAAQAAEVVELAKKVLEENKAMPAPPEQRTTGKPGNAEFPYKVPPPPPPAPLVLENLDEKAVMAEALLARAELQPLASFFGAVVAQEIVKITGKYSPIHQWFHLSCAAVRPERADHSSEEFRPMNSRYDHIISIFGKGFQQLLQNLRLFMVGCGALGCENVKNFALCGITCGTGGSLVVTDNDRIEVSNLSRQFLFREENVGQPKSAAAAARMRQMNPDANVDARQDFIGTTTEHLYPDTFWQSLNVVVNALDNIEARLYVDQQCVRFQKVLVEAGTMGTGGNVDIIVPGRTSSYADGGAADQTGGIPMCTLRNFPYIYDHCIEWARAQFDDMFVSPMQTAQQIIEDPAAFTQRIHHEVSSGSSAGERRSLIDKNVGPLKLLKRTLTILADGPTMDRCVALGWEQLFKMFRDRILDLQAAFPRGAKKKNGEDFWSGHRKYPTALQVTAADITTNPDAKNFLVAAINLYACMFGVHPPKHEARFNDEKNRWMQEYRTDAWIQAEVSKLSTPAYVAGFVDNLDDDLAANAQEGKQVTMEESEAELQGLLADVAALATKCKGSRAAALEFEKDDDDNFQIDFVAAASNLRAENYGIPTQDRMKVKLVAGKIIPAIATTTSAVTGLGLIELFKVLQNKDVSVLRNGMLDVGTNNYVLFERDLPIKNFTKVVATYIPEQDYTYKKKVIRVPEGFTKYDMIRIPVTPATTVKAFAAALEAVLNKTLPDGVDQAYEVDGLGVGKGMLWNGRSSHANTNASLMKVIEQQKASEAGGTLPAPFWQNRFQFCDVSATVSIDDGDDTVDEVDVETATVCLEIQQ

Chain of Polyketide synthase Pks13 (I6X8D2 whole entry): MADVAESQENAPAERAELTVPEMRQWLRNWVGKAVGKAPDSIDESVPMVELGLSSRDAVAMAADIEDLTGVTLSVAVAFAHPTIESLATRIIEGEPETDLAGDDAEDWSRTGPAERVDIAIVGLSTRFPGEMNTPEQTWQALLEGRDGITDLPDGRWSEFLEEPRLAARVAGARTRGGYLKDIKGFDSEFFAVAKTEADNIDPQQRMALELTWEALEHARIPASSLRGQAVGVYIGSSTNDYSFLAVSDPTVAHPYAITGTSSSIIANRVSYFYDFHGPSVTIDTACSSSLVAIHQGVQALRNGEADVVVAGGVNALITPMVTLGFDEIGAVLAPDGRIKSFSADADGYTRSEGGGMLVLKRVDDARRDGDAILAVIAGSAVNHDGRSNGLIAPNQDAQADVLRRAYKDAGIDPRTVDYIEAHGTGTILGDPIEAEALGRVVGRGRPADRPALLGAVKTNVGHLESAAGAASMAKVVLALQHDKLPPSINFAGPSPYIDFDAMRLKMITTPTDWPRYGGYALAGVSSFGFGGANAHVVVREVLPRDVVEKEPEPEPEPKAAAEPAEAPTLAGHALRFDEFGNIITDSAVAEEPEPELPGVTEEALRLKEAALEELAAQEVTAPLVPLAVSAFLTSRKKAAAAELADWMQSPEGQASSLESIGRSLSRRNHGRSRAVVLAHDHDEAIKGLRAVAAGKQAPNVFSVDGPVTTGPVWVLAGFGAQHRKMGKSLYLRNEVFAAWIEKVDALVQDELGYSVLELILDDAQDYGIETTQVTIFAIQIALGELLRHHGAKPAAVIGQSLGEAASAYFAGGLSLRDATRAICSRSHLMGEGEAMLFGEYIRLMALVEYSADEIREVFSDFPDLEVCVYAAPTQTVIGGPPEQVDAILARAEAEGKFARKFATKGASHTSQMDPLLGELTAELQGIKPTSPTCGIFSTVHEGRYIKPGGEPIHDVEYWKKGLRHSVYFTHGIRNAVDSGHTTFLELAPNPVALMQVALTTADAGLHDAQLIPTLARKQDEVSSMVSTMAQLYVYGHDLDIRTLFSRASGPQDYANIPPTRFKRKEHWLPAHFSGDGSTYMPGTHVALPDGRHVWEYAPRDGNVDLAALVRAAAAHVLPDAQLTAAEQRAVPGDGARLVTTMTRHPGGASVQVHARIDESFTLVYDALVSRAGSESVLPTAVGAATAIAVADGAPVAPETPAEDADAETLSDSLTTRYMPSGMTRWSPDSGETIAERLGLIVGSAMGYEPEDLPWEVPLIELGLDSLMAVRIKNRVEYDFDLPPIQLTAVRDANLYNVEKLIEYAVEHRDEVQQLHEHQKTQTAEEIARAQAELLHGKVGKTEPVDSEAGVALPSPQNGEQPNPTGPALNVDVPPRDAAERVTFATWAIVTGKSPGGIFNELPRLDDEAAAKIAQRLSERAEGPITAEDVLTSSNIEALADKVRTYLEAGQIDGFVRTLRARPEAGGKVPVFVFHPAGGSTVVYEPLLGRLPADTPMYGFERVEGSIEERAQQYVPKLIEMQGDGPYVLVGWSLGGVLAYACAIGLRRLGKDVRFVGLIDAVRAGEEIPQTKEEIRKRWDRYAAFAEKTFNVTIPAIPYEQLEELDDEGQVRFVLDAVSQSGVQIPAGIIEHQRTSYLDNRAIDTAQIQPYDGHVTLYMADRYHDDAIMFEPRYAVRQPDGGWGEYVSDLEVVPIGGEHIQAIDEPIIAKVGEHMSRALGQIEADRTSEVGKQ
Chain of Lysine--tRNA ligase (Q8IDJ8 whole entry): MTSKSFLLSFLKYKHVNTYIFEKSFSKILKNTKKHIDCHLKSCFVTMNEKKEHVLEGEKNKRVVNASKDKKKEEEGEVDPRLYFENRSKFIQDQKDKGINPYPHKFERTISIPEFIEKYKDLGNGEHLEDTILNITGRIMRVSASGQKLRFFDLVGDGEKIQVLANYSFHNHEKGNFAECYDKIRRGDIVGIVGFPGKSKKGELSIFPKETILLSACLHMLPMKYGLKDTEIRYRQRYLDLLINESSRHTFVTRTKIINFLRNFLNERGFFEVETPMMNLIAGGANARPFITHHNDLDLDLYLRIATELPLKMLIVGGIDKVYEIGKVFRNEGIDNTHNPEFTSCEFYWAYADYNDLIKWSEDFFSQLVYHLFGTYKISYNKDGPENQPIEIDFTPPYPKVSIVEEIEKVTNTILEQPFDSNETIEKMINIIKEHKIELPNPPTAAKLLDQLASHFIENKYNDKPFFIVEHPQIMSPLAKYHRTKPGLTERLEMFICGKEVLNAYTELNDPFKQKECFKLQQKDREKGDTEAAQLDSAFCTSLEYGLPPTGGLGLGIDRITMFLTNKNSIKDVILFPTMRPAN

SMILES	pIC50 [4]	also measured
COc1cc(/C=C/c2ncc(C(=O)O)s2)cc(Cl)c1O		pIC50 [1]: 4.507 and 4.461; IC50 [2]: > 50.1 µM and > 30.2 µM (2×) and 45.3 µM; IC50 [3]: 23.7 µM and 18.7 µM
COc1ncccc1NC(=O)N(Cc1ccc(C)o1)C1CC1	4.53 and 4.637	
CC(C)c1nnc2ccc(N3CCC(C(=O)Nc4nccs4)CC3)nn12	5 and 4.933	
Cc1cc(-c2cnc(NCc3cccnc3)nc2C(C)C)on1	4.396 and 4.538	
Cc1nc(C)n(CC2CCCN(c3ncnc4sccc34)C2)n1 (stereo not drawn)	5.597 and 5.199	
Cc1ccc(CC(=O)Nc2cc(C(C)C)n[nH]2)cn1		pIC50 [1]: < 4; pIC50 [5]: 4.869 and 4.956; IC50 ([5]; Trypanosoma brucei, 72 h): 12.7 µM; pIC50 [6]: 4.917; IC50 ([6]; Leishmania donovani): 11.7 µM
c1cnn(CC2CN(c3ncnc4ccsc34)CCO2)c1 (stereo not drawn)	4.809 and 4.868	
O=C1NCCN1C1CCCN(Cc2coc(-c3ccc(F)cc3)n2)C1 (stereo not drawn)	4.93 and 4.918	
CCc1nc(CN2CCN(c3ncnc4cc(F)ccc34)CC2)no1	5.76 [middle of 4 runs]	
CC(C)N(CC(N)=O)Cc1csc(COc2ccc(F)cc2)n1	5.121 and 5.081	
CC(C)C1CCCN1C(=O)Nc1ccc(=O)n(C)c1 (stereo not drawn)		IC50 [7]: 1.01 µM and 1.02 µM and 2.81 µM and 2.75 µM; pIC50 [1]: < 4; IC50 [8]: 19 µM and 22.3 µM; IC50 [9]: > 50.1 µM
CC(C)c1nc2n(n1)CC(NCc1nnc(C(C)C)o1)CC2 (stereo not drawn)		IC50 [10]: > 100 µM; pIC50 [1]: < 4
CC(=O)c1c(F)cccc1N1CCC(Cc2cccnc2)CC1	5.268 and 5.138	
Cc1nc(C)n(CC2CCCN(c3ncnc4c3CCC4)C2)n1 (stereo not drawn)	5.177 and 5.243	
O=C(Cc1noc2ccccc12)N1CCCC1c1noc(C2CC2)n1 (stereo not drawn)	4.845 and 4.787	
OCC1CCCN1c1cc(NCc2ccc(Cl)s2)ncn1 (stereo not drawn)	4.462 and 4.49	
Cc1cc(CN2CCCC2c2noc(C3CC3)n2)c2ccccc2n1 (stereo not drawn)	5.12 and 5.038	
CCS(=O)(=O)N1CCCc2ccc(NC(=O)Cc3ccc(F)cc3)cc21	4.555 and 4.597	
CCn1ncc2c1CCCC2NCc1cc(Cl)c(OC)c(OC)c1 (stereo not drawn)	4.746 and 4.672	
CC(=O)N1C[C@@H](c2ccsc2)[C@@H]2CN(Cc3cccc(Cl)c3)CC[C@@H]21	4.483 and 4.43	
Cc1n[nH]cc1CNc1ccc2c(c1)CN(C(=O)OC(C)(C)C)CC2	4.816 and 4.848	
COC(=O)c1ccc(S(=O)(=O)NCc2cccnc2N(C)C)cc1	4.637 and 5.104	
CCc1ccc(CN2C[C@@H]3OCCN(c4ccnc(N(C)C)n4)[C@@H]3C2)o1.O=C(O)C(F)(F)F	5.071 and 5.204	
Cc1nc(CCNC(=O)NCc2ccc(N(C)C)nc2)cs1	< 4.21	
CCn1c(C2CCCN(Cc3nccn3CCOC)C2)nn(C)c1=O (stereo not drawn)	< 4.21	
O=C(C1CCN(c2snc3ccccc23)CC1)N1CCCCCC1	4.575 and 4.655	

SMILES	pIC50 [4]	also measured
Cc1nc(C)n(C2CCCN(C(=O)c3ccc(N(C)C)nn3)C2)n1 (stereo not drawn)	< 4.21	
CC(=O)c1ccc(N2CCCC(CO)(CCOc3ccccc3)C2)nc1 (stereo not drawn)	4.524 and 4.702	
COCC1c2c(cnn2CC2CC2)CCN1Cc1ccc(OC)cc1 (stereo not drawn)	5.287 and 5.465	
COc1cccc(CNc2cnn(C)c(=O)c2Cl)c1	4.709 and 5.107	
Clc1ccc2cccnc2c1CN1CCCC1Cn1cncn1 (stereo not drawn)	4.696 and 4.448	
Nc1nccc(-c2c[nH]nc2C2CCCCC2)n1	4.943 and 4.951	
Cc1ccc(C(=O)Nc2cc(C(C)C)n[nH]2)cn1	4.606 and 4.922	
COc1cccc(CN2CCN(c3ccc4nncn4n3)C(C)C2)c1 (stereo not drawn)	4.923 and 4.922	
O=C(O)C(F)(F)F.O=C(O)C(F)(F)F.O=C(O)C(F)(F)F.c1ccc(CO[C@@H]2CO[C@@]3(CCN(Cc4ccccn4)C3)C2)nc1	< 4.21	
CC(C)(C)C(=O)N1C[C@H](c2ccsc2)[C@H]2CN(Cc3cccs3)CC[C@H]21.Cl	4.58 and 4.539	
CS(=O)(=O)c1ccc(NC(=O)N2CCc3sccc3C2)cn1	4.408 and 4.389	
CC1(C)Cc2ccccc2-c2nc(NCCO)[nH]c(=O)c21		pIC50 [1]: 4.722 and 4.636 and 4.548 and 4.621; IC50 [3]: 16.8 µM and 19.4 µM
O=C(NCc1ccccc1)c1nnc2ccc(N3CCOCC3)cc2n1		pIC50 [1]: < 4; IC50 [3]: 16 µM and 24.5 µM
Cc1cc(-c2cnc(N3CCCC(C)C3)nc2-c2cccnc2C)on1.Cl (stereo not drawn)	4.421 and 4.521	
CC(C)N1Cc2c(C(=O)N3CCOCC3)nn(C)c2C1.O=C(O)C(F)(F)F.O=C(O)C(F)(F)F	< 4.21	
CN(C)c1ccc(CCCNC(=O)Nc2ccc(C#N)cc2)cc1	4.654 and 4.645	
O=C(O)C(F)(F)F.O=C(c1ncccn1)N1C[C@H]2CCC[C@@]2(COCc2cccnc2)C1	< 4.21	
CN(Cc1ccco1)[C@@H]1CN(C(=O)c2ccnnc2)[C@@H]2CCCO[C@H]12.O=C(O)C(F)(F)F	< 4.21	
CCS(=O)(=O)N1CCc2ccc(NC(=O)Nc3cccc(SC)c3)cc21	5.726 [middle of 4 runs]	
c1cnn(CC2CCCN2c2ncnc3sccc23)c1 (stereo not drawn)	5.137 and 5.086	
Cc1ccc(S(=O)(=O)N2C[C@H]3C[C@H](NC(=O)c4ccnn4C)[C@H]3C2)cc1	5.601 and 5.47 and 5.597 and 5.592	
CC(C)c1nc(C2CCCN(C(=O)CCCn3cncn3)C2)no1 (stereo not drawn)	< 4.21	
COc1ccc(C)cc1CN1CCCC1c1noc(C2CC2)n1 (stereo not drawn)	4.543 and 4.502	
CC(C)(O)C1CCN(C(=O)Nc2nc(-c3ccccc3)ns2)CC1	4.605 and 4.639	
COc1ccc(-c2nnc(SC(C)C(=O)NC3CC3)[nH]2)c(OC)c1 (stereo not drawn)	4.665 and 4.584	
